Results on four compounds are retold here after article PMC3914206.

Assay [1] concerns the target T1, panel of 442 kinases (Homo sapiens, UniProt Q96NX5).
T1 construct: purchased KINOMEscan
The assay is classed as binding. Conditions: Compound Concentration 10 µM. Details: KINOMEscan: ABL1(F317L)-phosphorylated / KINOMEscan: ABL1(H396P)-nonphosphorylated / KINOMEscan: ABL1(H396P)-phosphorylated / KINOMEscan: ABL1(M351T)-phosphorylated / KINOMEscan: ABL1(T315I)-phosphorylated / KINOMEscan: ABL1-nonphosphorylated / KINOMEscan: ABL1-phosphorylated / KINOMEscan: ACVR2A / KINOMEscan: ACVR2B / KINOMEscan: ADCK3 / KINOMEscan: ADCK4 / KINOMEscan: AKT1 / KINOMEscan: AKT3 / KINOMEscan: ALK / KINOMEscan: ARK5 / KINOMEscan: AURKA / KINOMEscan: AURKC / KINOMEscan: BIKE / KINOMEscan: BMPR1A / KINOMEscan: BMPR1B / KINOMEscan: BMX / KINOMEscan: BRK / KINOMEscan: BRSK1 / KINOMEscan: BRSK2 / KINOMEscan: CAMK1 / KINOMEscan: CAMK1D / KINOMEscan: CAMK1G / KINOMEscan: CAMK2A / KINOMEscan: CAMK2B / KINOMEscan: AAK1 / KINOMEscan: CAMK2D / KINOMEscan: CAMK2G / KINOMEscan: ABL1(F317I)-nonphosphorylated / KINOMEscan: ABL1(F317I)-phosphorylated / KINOMEscan: ABL1(F317L)-nonphosphorylated: unit: % Ctrl. An excerpt:
(§1) We assessed the selectivity of members of this scaffold using the KINOMEscan methodology across a near comprehensive panel of 442 kinases [[18,27]].

For assay [2], the target named is T2, panel of 442 kinases (Homo sapiens, UniProt Q99683).
T2 construct: purchased KINOMEscan
T2 sequence (Q99683 1-1374): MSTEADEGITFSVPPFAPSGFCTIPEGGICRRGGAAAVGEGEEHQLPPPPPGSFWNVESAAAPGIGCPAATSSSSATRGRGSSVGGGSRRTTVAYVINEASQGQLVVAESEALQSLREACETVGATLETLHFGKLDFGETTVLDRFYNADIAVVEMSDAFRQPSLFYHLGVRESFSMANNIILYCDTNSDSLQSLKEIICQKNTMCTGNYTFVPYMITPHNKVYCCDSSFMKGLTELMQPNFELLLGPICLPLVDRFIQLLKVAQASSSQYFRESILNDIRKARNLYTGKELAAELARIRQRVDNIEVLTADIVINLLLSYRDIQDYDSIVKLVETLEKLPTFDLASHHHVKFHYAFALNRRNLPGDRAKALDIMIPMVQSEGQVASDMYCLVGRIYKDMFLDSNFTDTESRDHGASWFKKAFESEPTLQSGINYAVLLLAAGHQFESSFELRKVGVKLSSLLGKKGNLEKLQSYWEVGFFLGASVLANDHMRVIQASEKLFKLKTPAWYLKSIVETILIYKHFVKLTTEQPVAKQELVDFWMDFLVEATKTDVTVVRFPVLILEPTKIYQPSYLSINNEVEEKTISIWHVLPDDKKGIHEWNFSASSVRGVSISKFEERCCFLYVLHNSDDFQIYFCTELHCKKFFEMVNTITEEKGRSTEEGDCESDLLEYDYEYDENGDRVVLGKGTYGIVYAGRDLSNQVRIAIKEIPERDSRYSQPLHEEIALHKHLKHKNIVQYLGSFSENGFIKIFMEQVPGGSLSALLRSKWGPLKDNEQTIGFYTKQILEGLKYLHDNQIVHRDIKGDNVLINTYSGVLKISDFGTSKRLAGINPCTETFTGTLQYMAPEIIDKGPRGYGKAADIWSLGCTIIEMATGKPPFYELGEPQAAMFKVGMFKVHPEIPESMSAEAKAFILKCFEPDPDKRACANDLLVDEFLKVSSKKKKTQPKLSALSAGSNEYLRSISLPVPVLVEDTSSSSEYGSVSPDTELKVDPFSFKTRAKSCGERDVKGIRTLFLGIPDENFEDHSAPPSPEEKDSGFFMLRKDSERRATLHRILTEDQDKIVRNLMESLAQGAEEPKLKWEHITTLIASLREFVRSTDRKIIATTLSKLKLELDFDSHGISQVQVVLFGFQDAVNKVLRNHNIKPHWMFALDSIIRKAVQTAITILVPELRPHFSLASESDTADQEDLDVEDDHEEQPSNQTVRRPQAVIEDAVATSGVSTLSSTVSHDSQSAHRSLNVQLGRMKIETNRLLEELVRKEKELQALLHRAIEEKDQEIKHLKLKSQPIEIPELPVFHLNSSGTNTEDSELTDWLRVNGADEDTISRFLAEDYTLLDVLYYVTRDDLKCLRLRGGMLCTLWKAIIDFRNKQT
The assay is classed as binding. Conditions: Compound Concentration 10 µM. Details: KINOMEscan: ABL1(F317L)-phosphorylated / KINOMEscan: ABL1(H396P)-nonphosphorylated / KINOMEscan: ABL1(H396P)-phosphorylated / KINOMEscan: ABL1(M351T)-phosphorylated / KINOMEscan: ABL1(T315I)-phosphorylated / KINOMEscan: ABL1-nonphosphorylated / KINOMEscan: ABL1-phosphorylated / KINOMEscan: ACVR2A / KINOMEscan: ACVR2B / KINOMEscan: ADCK3 / KINOMEscan: ADCK4 / KINOMEscan: AKT1 / KINOMEscan: AKT3 / KINOMEscan: ALK / KINOMEscan: ARK5 / KINOMEscan: AURKA / KINOMEscan: AURKC / KINOMEscan: BIKE / KINOMEscan: BMPR1A / KINOMEscan: BMPR1B / KINOMEscan: BMX / KINOMEscan: BRK / KINOMEscan: BRSK1 / KINOMEscan: BRSK2 / KINOMEscan: CAMK1 / KINOMEscan: CAMK1D / KINOMEscan: CAMK1G / KINOMEscan: CAMK2A / KINOMEscan: CAMK2B / KINOMEscan: AAK1 / KINOMEscan: CAMK2D / KINOMEscan: CAMK2G / KINOMEscan: ABL1(F317I)-nonphosphorylated / KINOMEscan: ABL1(F317I)-phosphorylated / KINOMEscan: ABL1(F317L)-nonphosphorylated: unit: % Ctrl.
From the text: as §1

Structures are written as SMILES.

T1 sequence (Q96NX5 whole entry): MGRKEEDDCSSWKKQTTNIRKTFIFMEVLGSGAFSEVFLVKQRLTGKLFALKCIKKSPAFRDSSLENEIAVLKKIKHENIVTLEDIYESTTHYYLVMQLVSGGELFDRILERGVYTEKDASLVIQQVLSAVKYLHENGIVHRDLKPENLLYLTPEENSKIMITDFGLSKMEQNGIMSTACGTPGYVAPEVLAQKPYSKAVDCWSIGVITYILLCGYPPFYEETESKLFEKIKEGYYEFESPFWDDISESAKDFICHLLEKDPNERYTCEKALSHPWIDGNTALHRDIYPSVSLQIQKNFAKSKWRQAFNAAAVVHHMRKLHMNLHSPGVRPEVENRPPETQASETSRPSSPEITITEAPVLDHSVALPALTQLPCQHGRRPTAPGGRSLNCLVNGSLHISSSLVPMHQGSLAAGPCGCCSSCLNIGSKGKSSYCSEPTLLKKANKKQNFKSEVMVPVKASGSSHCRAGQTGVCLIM

For the compound `CCOc1cc(C(=O)N2CCC(N3CCN(C)CC3)CC2)ccc1Nc1ncc2c(n1)N(C1CCCC1)c1ccccc1C(=O)N2C` [Compound 26], the “KINOMEscan: CAMK1G” value at panel of 442 kinases [1] was determined as 95. The “KINOMEscan: ASK1” value on panel of 442 kinases [2] was determined as 100.

In the case of `COc1cc(C(=O)N2CCC(N3CCN(C)CC3)CC2)ccc1Nc1ncc2c(n1)N1CCc3cccc(c31)C(=O)N2C` [Compound 24], the “KINOMEscan: CAMK1G” value on panel of 442 kinases [1] is 56.

As for `COc1cc(C(=O)N2CCC(N3CCN(C)CC3)CC2)ccc1Nc1ncc2c(n1)N(C)c1ccccc1C(=O)N2C` [15 (LRRK2-IN-1)], at panel of 442 kinases [1], the “KINOMEscan: CAMK1G” value is given as 74. Moreover, the “KINOMEscan: ASK1” value at panel of 442 kinases [2] worked out at 100.

As to `COc1cc(C(=O)N2CCC(N3CCN(C)CC3)CC2)ccc1Nc1ncc2c(n1)N(C1CCCC1)c1ccccc1C(=O)N2C` [Compound 25, 11-cyclopentyl-2-((2-methoxy-4-(4-(4-methylpiperazin-1-yl)piperidine-1-carbonyl)phenyl)amino)-5-methyl-5H-benzo[e]pyrimido[5,4-b][1,4]diazepin-6(11H)-one], the “KINOMEscan: CAMK1G” value at panel of 442 kinases [1] is 90. For the same compound, on panel of 442 kinases [2], the “KINOMEscan: ASK1” value was 100.
